Experimental data taken from publication PMC7217150, “Synthesis, Modification, and Biological Evaluation of a Library of Novel Water‐Soluble Thiopyridone‐Based Organometallic Complexes and Their Unexpected (Biological) Behavior” (Chemistry (Weinheim an Der Bergstrasse, Germany), 2020).
Read-outs that look alike come from different tables or passages of the source.

How the values were obtained:
[1] = UV/Vis stability in aqueous solution; format: physicochemical; conditions: in PBS, rank among osmium complexes
Description: In order to investigate complex stabilities, UV/Vis spectrophotometry was conducted for all complexes. […] This process is fastest for complex 4 b* followed by complexes 4 a* and finally 4 c* in PBS. Decomposition of the osmium compounds was slightly slower in pure water (Figure 5).
UV/Vis spectra were recorded using a Hewlett Packard 8452A diode‐array spectrophotometer between 200–800 nm. The path length (l) was either 1 or 2 cm. UV/Vis spectra were recorded to confirm complex stability in aqueous systems and over a pH range 5.8–7.9.

[2] = test system: SW480; assay: MTT cytotoxicity assay, monolayer culture; format: cell-based, human; conditions: SW480, MTT assay, exposure time 96 h, means ± SDs
[3] = test system: CH1/PA‐1; assay: MTT cytotoxicity assay, monolayer culture; format: cell-based, human; conditions: CH1/PA‐1, MTT assay, exposure time 96 h, means ± SDs
[4] = test system: A549; assay: MTT cytotoxicity assay, monolayer culture; format: cell-based, human; conditions: exposure time 96 h, means ± SDs
[5] = test system: human cancer cell lines CH1/PA‐1, SW480, A549; conditions: tested cancer cell lines
Description: Cytotoxicity of the compounds in monolayer cultures was determined by the colorimetric MTT assay (MTT=3‐(4,5‐dimethyl‐2‐thiazolyl)‐2,5‐diphenyl‐2H‐tetrazolium bromide). 1×10^3 CH1/PA‐1, 2×10^3 SW480 and 3×10^3 A549 cells were seeded in 100 μL supplemented MEM per well into 96‐well flat‐bottom microculture plates. […] After 96 h, the drug‐containing medium was replaced with 100 μL of RPMI 1640/MTT mixture [6 parts of RPMI 1640 medium (supplemented with 10 % heat‐inactivated fetal bovine serum and 4 mM L‐glutamine), 1 part of MTT solution in phosphate‐buffered saline (5 mg mL^−1)]. After incubation for 4 h, the mixture was replaced with 150 μL DMSO per well to dissolve the formazan product formed by viable cells. Optical densities at 550 nm (and at a reference wavelength of 690 nm) were measured with a microplate reader (ELx808, Bio‐Tek).

[6] = 1H NMR kinetics in D2O/1 % [D6]DMSO, repeated 1:1 dilution
Description: In order to elucidate the fate of complex 4 c* and a possible concentration effect on its stability, additional NMR and MS experiments were carried out. […] Consequently, the sample was diluted 1:1 (3 mg mL^−1) and kinetics were measured over 24 h a second time. This step was repeated six times in total (after 24, 48, 72, 96, 168, and 192 h; resulting in a final concentration of 176 μM). […] It was impossible to measure 2D NMR sets throughout the experiment, due to the low sample concentration.

[7] = pH 5.8
Description: In order to investigate a possible pH influence on complex stability and to gather further insights into the instability of the osmium complexes, UHPLC kinetic measurements were carried out at pH values of 5.8, 6.2, 6.7, 7.2 and 7.9 in phosphate buffered solution via UHPLC. […] Due to pump pressure fluctuations the retention times tended to shift ±0.18 min.
Stock solutions containing the desired complex in DMSO (5 mM) were diluted with phosphate buffer to a final concentration of 50 μM compound in 1 % DMSO/20 mM buffer and directly analyzed via gradient UHPLC runs over 24 h. Phosphate buffers at pH 5.8, 6.2, 6.7, 7.2 and 7.9 were employed to ensure a constant pH value. The instrument was set to 0.6 mL min^−1 flow rate, 37 °C sampler temperature, 25 °C column compartment, 225 nm detection wavelength, 95 % MeOH in MiliQ water +0.1 % formic acid over 7.0 min.

[8] = test system: CH1/PA‐1; conditions: CH1/PA‐1, MTT assay, 96 h; cited from earlier work
[9] = test system: A549; conditions: A549, MTT assay, 96 h; cited from earlier work
[10] = test system: SW480; conditions: SW480, MTT assay, 96 h; cited from earlier work
[11] = test system: human cancer cell lines CH1/PA‐1, SW480, A549; set-up: method as in PMID 26365319; conditions: cited from earlier work
[12] = test system: autochthonous colon cancer; set-up: method as in earlier work; conditions: rat model, well tolerable dose, cited from earlier work

Row | SMILES | IC50 [2] [nM] | IC50 [3] [nM] | IC50 [4] [nM] | IC50 [8] [nM] | IC50 [9] [nM] | IC50 [10] [nM] | also measured
1 | Cc1c([O-])c(=S)ccn1-c1ccccc1.Cc1ccc(C(C)C)cc1.[Cl-].[Os+2] [Compound 4 b, Chlorido[2‐methyl‐3‐(oxo‐κO)‐1‐phenylpyridine‐4(1H)‐thionato‐κS](η^6‐p‐cymene)osmium(II)] | 5800 ± 300 | 1130 ± 30 | 2200 ± 1100 | – | – | – | decomposition speed by UV/Vis [1]: fastest
2 | Cc1c([O-])c(=S)ccn1Cc1ccccc1.Cc1ccc(C(C)C)cc1.[Cl-].[Os+2] [Compound 4 c, Chlorido[1‐benzyl‐2‐methyl‐3‐(oxo‐κO)‐pyridine‐4(1H)‐thionato‐κS](η^6‐p‐cymene)osmium(II)] | 5600 ± 700 | 1300 ± 200 | 2200 ± 1200 | – | – | – | IC50 values, in words [5]: low micromolar range; dilution at which formation of a second species became apparent [6]: 375 µg/mL; stability by UHPLC [7]: stable over 24 h
3 | N.N.[Cl][Pt][Cl] [Cisplatin] | – | – | – | 160 ± 30 | 1300 ± 400 | 3500 ± 300 | activity in CH1/PA‐1 cells relative to SW480 cells [11]: up to 22 times
4 | [Cl][Ru-]([Cl])([Cl])[Cl].[Na+].c1ccc2[nH]ncc2c1.c1ccc2[nH]ncc2c1 [BOLD‐100] | – | – | – | 50000 ± 6000 | 156000 ± 11000 | 62000 ± 9000 | –
5 | [Cl-].[Cl-].[Cl-].[Cl-].[Ru+3].c1ccc2[nH][nH+]cc2c1.c1ccc2[nH]ncc2c1.c1ccc2[nH]ncc2c1 [KP1019, indazolium trans‐[tetrachlorido‐bis(1H‐indazole)ruthenate(III)]] | – | – | – | – | – | – | reduction of tumor volume ([12]; autochthonous colon cancer): up to 95%; weight loss [12]: no more than 6%
